Legend:
Assay type in all cases: in vivo
[1] = test system: Japanese bulrush (Scirpus juncoides Roxb.); experiment: Test Example 1: herbicidal effect by soil application to paddy field; settings: paddy field soil application; active ingredient 1,000 g per 1 hectare; wettable powder added dropwise to water surface the day after sowing; examined on the 21st day after application
Procedure, shortened: (§1)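 Plants were sown in flooded (3 cm) paddy soil and evaluated for herbicidal effect 21 days after soil application in a greenhouse.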

[2] = test system: early watergrass (Echinochloa oryzicola Vasing); experiment: as above; settings: paddy field soil application; active ingredient 1,000 g per 1 hectare; wettable powder added dropwise to water surface the day after sowing; examined on the 21st day after application
Procedure, shortened: as §1

[3] = test system: heartshape false pickerelweed (Monochoria vaginalis (Burm.f.) C.Presl); experiment: as above; settings: paddy field soil application; active ingredient 1,000 g per 1 hectare; wettable powder added dropwise to water surface the day after sowing; examined on the 21st day after application
Procedure, shortened: as §1

[4] = test system: barnyardgrass (Echinochloa crus-galli (L.) P. Beauv. var. crus-galli); experiment: Test Example 3: herbicidal effect by application to upland field (foliage treatment); settings: 14th day after application; for herbicidal effect (index), Barnyardgrass: foliage treatment, plants grown two weeks, 1,000 g active ingredient per hectare
Procedure, shortened: (§2)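 Greenhouse-grown plants, two weeks old in field soil, were treated by spraying their foliage with a water dilution of wettable powder. Rate: 1,000 g active ingredient in a 1,000 L/ha equivalent volume. Assessment followed at 14 days.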

[5] = test system: velvetleaf (Abutilon theophrasti medicus); experiment: as above; settings: 14th day after application; for herbicidal effect (index), Velvetleaf: foliage treatment, plants grown two weeks, 1,000 g active ingredient per hectare
Procedure, shortened: as §2

[6] = test system: slender amaranth (Amaranthus viridis L.); experiment: as above; settings: 14th day after application; for herbicidal effect (index), Slender Amaranth: foliage treatment, plants grown two weeks, 1,000 g active ingredient per hectare
Procedure, shortened: as §2

[7] = test system: green foxtail (Setaria viridis (L.) P. Beauv.); experiment: as above; settings: 14th day after application; for herbicidal effect (index), Green Foxtail: foliage treatment, plants grown two weeks, 1,000 g active ingredient per hectare
Procedure, shortened: as §2

[8] = test system: barnyardgrass (Echinochloa crus-galli (L.) P. Beauv. var. crus-galli); experiment: Test Example 2: herbicidal effect by soil application to upland field; settings: soil surface spray, upland field soil, 1,000 g active ingredient per hectare, 21st day after application
Procedure, shortened: (§3)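 A standard visual rating of herbicidal effect, made 21 days after treatment, gives the value. Treatment consisted of a uniform spray of water-diluted wettable powder on the soil covering newly sown seeds, equivalent to 1,000 g active ingredient and 1,000 liters per hectare.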

[9] = test system: velvetleaf (Abutilon theophrasti medicus); experiment: as above; settings: soil surface spray, upland field soil, 1,000 g active ingredient per hectare, 21st day after application
Procedure, shortened: as §3

[10] = test system: slender amaranth (Amaranthus viridis L.); experiment: as above; settings: soil surface spray, upland field soil, 1,000 g active ingredient per hectare, 21st day after application
Procedure, shortened: as §3

[11] = test system: green foxtail (Setaria viridis (L.) P. Beauv.); experiment: as above; settings: soil surface spray, upland field soil, 1,000 g active ingredient per hectare, 21st day after application
Procedure, shortened: as §3

[12] = foliage treatment, 1,000 g active ingredient per 1 hectare, greenhouse

SMILES: CCCn1c(C(F)(F)F)ccc(C(=O)C2=C(O)CCCC2=O)c1=O [I-3]
- herbicidal effect, Scirpus juncoides Roxb. [1]: 5 (90% or more of herbicidal effect and crop phytotoxicity)
- herbicidal effect, Echinochloa oryzicola Vasing [2]: 5 (90% or more of herbicidal effect and crop phytotoxicity)
- herbicidal effect, Monochoria vaginalis (Burm. f.) C. Presl [3]: 5 (90% or more of herbicidal effect and crop phytotoxicity)
- herbicidal effect (index), Barnyardgrass [4]: 5 (90% or more of herbicidal effect and crop phytotoxicity)
- herbicidal effect (index), Velvetleaf [5]: 5 (90% or more of herbicidal effect and crop phytotoxicity)
- herbicidal effect (index), Slender Amaranth [6]: 5 (90% or more of herbicidal effect and crop phytotoxicity)
- herbicidal effect (index), Green Foxtail [7]: 5 (90% or more of herbicidal effect and crop phytotoxicity)
- herbicidal effect (index), Barnyardgrass [8]: 5 (90% or more of herbicidal effect and crop phytotoxicity)
- herbicidal effect (index), Velvetleaf [9]: 5 (90% or more of herbicidal effect and crop phytotoxicity)
- herbicidal effect (index), Slender Amaranth [10]: 5 (90% or more of herbicidal effect and crop phytotoxicity)
- herbicidal effect (index), Green Foxtail [11]: 5 (90% or more of herbicidal effect and crop phytotoxicity)

SMILES: CSCCn1c(C(F)(F)F)ccc(C(=O)C2=C(O)C3CCC(C3)C2=O)c1=O (stereo not drawn) [III-28]
- herbicidal effect, Scirpus juncoides Roxb. [1]: 5 (90% or more of herbicidal effect and crop phytotoxicity)
- herbicidal effect, Echinochloa oryzicola Vasing [2]: 5 (90% or more of herbicidal effect and crop phytotoxicity)
- herbicidal effect, Monochoria vaginalis (Burm. f.) C. Presl [3]: 5 (90% or more of herbicidal effect and crop phytotoxicity)
- herbicidal effect, Barnyardgrass [4, 12]: 5 (90% or more of herbicidal effect and crop phytotoxicity)
- herbicidal effect, Velvetleaf [5, 12]: 5 (90% or more of herbicidal effect and crop phytotoxicity)
- herbicidal effect, Slender Amaranth [6, 12]: 5 (90% or more of herbicidal effect and crop phytotoxicity)
- herbicidal effect, Green Foxtail [7, 12]: 5 (90% or more of herbicidal effect and crop phytotoxicity)
- herbicidal effect (index), Barnyardgrass [8]: 5 (90% or more of herbicidal effect and crop phytotoxicity)
- herbicidal effect (index), Velvetleaf [9]: 5 (90% or more of herbicidal effect and crop phytotoxicity)
- herbicidal effect (index), Slender Amaranth [10]: 5 (90% or more of herbicidal effect and crop phytotoxicity)
- herbicidal effect (index), Green Foxtail [11]: 5 (90% or more of herbicidal effect and crop phytotoxicity)

SMILES: O=C1CCCC(O)=C1C(=O)c1ccc(C(F)(F)F)n(-c2cc(F)ccc2F)c1=O [I-103]
- herbicidal effect, Scirpus juncoides Roxb. [1]: 5 (90% or more of herbicidal effect and crop phytotoxicity)
- herbicidal effect, Echinochloa oryzicola Vasing [2]: 5 (90% or more of herbicidal effect and crop phytotoxicity)
- herbicidal effect, Monochoria vaginalis (Burm. f.) C. Presl [3]: 5 (90% or more of herbicidal effect and crop phytotoxicity)
- herbicidal effect (index), Barnyardgrass [4]: 5 (90% or more of herbicidal effect and crop phytotoxicity)
- herbicidal effect (index), Velvetleaf [5]: 5 (90% or more of herbicidal effect and crop phytotoxicity)
- herbicidal effect (index), Slender Amaranth [6]: 5 (90% or more of herbicidal effect and crop phytotoxicity)
- herbicidal effect (index), Green Foxtail [7]: 5 (90% or more of herbicidal effect and crop phytotoxicity)
- herbicidal effect (index), Barnyardgrass [8]: 5 (90% or more of herbicidal effect and crop phytotoxicity)
- herbicidal effect (index), Velvetleaf [9]: 5 (90% or more of herbicidal effect and crop phytotoxicity)
- herbicidal effect (index), Slender Amaranth [10]: 5 (90% or more of herbicidal effect and crop phytotoxicity)
- herbicidal effect (index), Green Foxtail [11]: 5 (90% or more of herbicidal effect and crop phytotoxicity)
